Test results as given in PubChem BioAssay (NCI).
Several values for one entry are separate records, joined by “and”; a condition that tells them apart may be missing. Identical values can stand only once.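 Each compound was tested at five concentrations against cells in 96-well plates for 48 hours. At the GI50, growth is halved. TGI: concentration producing complete growth inhibition.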

Key:
Assay in all cases: inhibition of tumour cell growth, NCI panel, 48 h
HCT-15 colon = test system: HCT-15 colon
IGROV1 ovarian = test system: IGROV1 ovarian
MDA-MB-231 breast = test system: MDA-MB-231 breast
NCI-H226 lung = test system: NCI-H226 lung
RPMI-8226 leukemia = test system: RPMI-8226 leukemia
SK-OV-3 ovarian = test system: SK-OV-3 ovarian
SNB-75 CNS = test system: SNB-75 CNS
UACC-62 melanoma = test system: UACC-62 melanoma
OVCAR-8 ovarian = test system: OVCAR-8 ovarian
DU-145 prostate = test system: DU-145 prostate

| Compound | GI50 (HCT-15 colon) [nM] | TGI (HCT-15 colon) | GI50 (IGROV1 ovarian) [nM] | TGI (IGROV1 ovarian) [µM] | GI50 (MDA-MB-231 breast) [nM] | TGI (MDA-MB-231 breast) [µM] | GI50 (NCI-H226 lung) [µM] | TGI (NCI-H226 lung) | GI50 (RPMI-8226 leukemia) [nM] | TGI (RPMI-8226 leukemia) | GI50 (SK-OV-3 ovarian) | TGI (SK-OV-3 ovarian) [µM] | GI50 (SNB-75 CNS) [nM] | TGI (SNB-75 CNS) | GI50 (UACC-62 melanoma) [nM] | TGI (UACC-62 melanoma) | TGI (OVCAR-8 ovarian) | TGI (DU-145 prostate) [nM] | GI50 (DU-145 prostate) [nM] | GI50 (OVCAR-8 ovarian) [nM] |
| --- | --- | --- | --- | --- | --- | --- | --- | --- | --- | --- | --- | --- | --- | --- | --- | --- | --- | --- | --- | --- |
| Cn1ccc2c(c1=O)C(=O)c1nccc3c1c-2nc1ccccc13 | 1560 | 3.46 µM | 1520 | 3.87 | 1640 | 3.13 | 12.5 | 26.4 µM | 2580 | 8.68 µM | 1740 nM | 3.15 | 1170 | 2430 nM | 1540 | 2.93 µM | – | – | – | – |
| O=c1c2cc(Br)ccc2nc(-c2ccccc2Cl)n1NCC1(O)OCC(O)C(O)C1O (stereo not drawn) | – | > 100 µM | – | – | – | – | – | > 100 µM | – | > 100 µM | – | > 100 | – | > 100000 nM | – | > 100 µM | > 100 µM | – | – | – |
| Nc1ccn(CCO)c(=O)n1 | – | > 100 µM | – | > 100 | – | – | – | > 100 µM | – | > 100 µM | – | > 100 | – | > 100000 nM | – | > 100 µM | > 100 µM | – | – | – |
| COC(C(=O)C(O)C(C)O)C1Cc2cc3cc(OC4CC(OC(C)=O)C(OC5CC(O)C(OC)C(C)O5)C(C)O4)cc(O)c3c(O)c2C(=O)C1OC1CC(OC2CC(OC3CC(C)(O)C(OC(=O)C(C)C)C(C)O3)C(O)C(C)O2)C(O)C(C)O1 (stereo not drawn) | 455 | 22.4 µM and 34.5 µM | – | – | – | 0.551 | – | 0.148 µM and 0.0893 µM | – | 0.202 µM and 0.14 µM | 21.7 nM and 42.3 nM | – | 1.57 | 62.6 nM and 10.9 nM and 7.5 nM | 1.29 | – | – | 569 | – | – |
| COc1ccc(-c2cc(-c3ccccc3)nc(N3CCN(CCNc4ccnc5cc(Cl)ccc45)CC3)n2)cc1 | 1400 | 3.14 µM | 1480 | 3.19 | 1810 | 3.43 | 4.14 | 25.1 µM | 1650 | 4.57 µM | 10300 nM | 22 | 14900 | 28800 nM | 3480 | 11.2 µM | – | 3940 | 1880 | – |
| CCCCCCCCCCC(O)[C@H]1CCC(C2CC[C@H]([C@H](O)CCCCCCCCCCC(O)CC3=CC(C)OC3=O)O2)O1 (stereo partly drawn) | 1230 | 3.7 µM and 5.88 µM | – | – | – | 4.23 | – | 2.57 µM and 3.36 µM | 615 | 3.2 µM | – | 15.7 | 2250 | 5080 nM and 5940 nM | 1970 | 4.03 µM and 14.2 µM | 2.8 µM and 18.4 µM | – | – | 2290 |
| C[C@H]1[C@H](C)CC[C@]2(C(=O)N3CCN(C)CC3)CC[C@]3(C)C(=CC[C@@H]4[C@@]5(C)C/C(=C/c6cccnc6)C(=O)C(C)(C)[C@@H]5CC[C@]43C)[C@H]12 | 960 | 2.45 µM | 1520 | 3.31 | 943 | 2.25 | 1.81 | 3.77 µM | 1490 | 4.15 µM | 1710 nM | 3.22 | 1080 | 2340 nM | 1150 | 2.52 µM | – | 2650 | 1290 | – |
| Cc1ccc(NC(=O)c2cc3ccccc3c(N=Nc3ccccc3O)c2O)c(C)c1 | – | 11.1 µM | – | 13.5 | – | 8.77 | – | 13.1 µM | – | 11.1 µM | – | 16.7 | – | 2500 nM | – | – | 3.7 µM | – | – | – |
